Holding throughout (assay): NCI anticancer screen, dose series, 48 h
Test [1] relates to M14 melanoma.
The subject of test [2] is A549 NSCLC.
The subject of test [3] is U251 CNS.
In test [4] the test system is SK-OV-3 ovarian.
The test system of test [5] is OVCAR-3 ovarian.
For test [6], the system named is UO-31 renal.
Test [7] relates to HL-60(TB) leukemia.
Test [8] relates to SK-MEL-5 melanoma.
Test [9] relates to NCI-H226 lung.
For test [10], the system named is OVCAR-5 ovarian.

18 compounds from PubChem BioAssay (NCI) can be followed below.

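A five-concentration, 48-hour dose response in 96-well plates underlies each endpoint, interpolated linearly between surrounding concentrations. Abbreviation: GI50, concentration required for 50% inhibition of growth. At the TGI there is no net growth.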

`Cc1ccc(-c2nc3nc(-c4ccc(F)cc4)nc(N4CCNCC4)c3o2)cc1`: the GI50 in test [1] is 1.92 µM; in [2], 2.1 µM; in test [3], 1.95 µM; in test [4], 18.7 µM; in [5], 1.86 µM; in test [6], 1.46 µM. Besides, the GI50 in test [7] was 1.91 µM; in test [8], 15.4 µM; in test [9] it was 10.6 µM; in test [10] it was 1.97 µM. The TGI in test [1] amounted to 3.79 µM; in [2], 4.74 µM; in [3] it was 4.03 µM; in test [4] it was 34.4 µM; in test [5] it was 3.5 µM; in [6] it was 2.79 µM. For the same compound, the TGI in test [7] was found to be 4.3 µM; in test [8], 29 µM; in [9] it was 26.7 µM; in test [10], 4.54 µM.

For `CCN1CCC(CC(=O)Nc2n[nH]c3nnc(-c4cccc(F)c4F)cc23)CC1`, the GI50 in test [1] is greater than 25 µM; in test [2], greater than 25 µM; in [3], 21.2 µM; in test [4], greater than 25 µM; in test [5] it was 3.65 µM; in test [6], greater than 25 µM. The GI50 in [7] is greater than 25 µM; in test [8], greater than 6.37 µM; in [9], 22.5 µM; in test [10], greater than 25 µM. Further, the TGI in test [1], in [2], in test [3], in [4], in test [5] and in test [6] was greater than 25 µM throughout. The TGI in test [7], in [8], in test [9] and in test [10] was greater than 25 µM in each case.

For `CCCCCCC1N=C(N)N=C(N)N1c1cccc(Cl)c1` (stereo not given), the GI50 is 0.668 µM in test [1]; 0.181 µM in test [2]; 0.0616 µM in test [3]; 1.22 µM in test [4]; 0.863 µM in [5]; 31.5 µM in test [6]. Besides, the GI50 in test [7] was 1.14 µM; in test [8] it was 0.474 µM; in test [9] it was 1.75 µM; in [10], 0.794 µM. Moreover, the TGI in [1] was 15.5 µM; in [2], greater than 44.5 µM; in test [3], 13.7 µM; in test [4] it was 20.9 µM; in [5] it was 10.5 µM; in test [6], 97.5 µM. Moreover, the TGI came out at 10.7 µM in [7], 13 µM in test [8], 24.5 µM in test [9] and 23.1 µM in [10].

For `CC(=O)OCC12CN(C#N)C3C4COC(CC41)C1(C(=O)N(C)c4ccccc41)C32` (stereo not given), the TGI in test [1] is 61.9 µM; in test [2], greater than 100 µM; in test [3] it was greater than 100 µM; in test [4], greater than 100 µM; in [5], 14.7 µM; in [6] it was 31.4 µM. Further, the TGI in test [7] was 30.7 µM; in test [8], 86.3 µM; in test [9] it was 49.5 µM; in [10] it was greater than 100 µM.

As to `O=C(Cc1ccccc1[N+](=O)[O-])C(CO)c1ccccc1[N+](=O)[O-]` (stereo not given), the TGI in test [1], in test [2], in test [3], in test [4], in [5] and in test [6] was greater than 100 µM each time. For the same compound, the TGI in test [7], in test [8], in [9] and in [10] was greater than 100 µM throughout.

For the compound `COC(=O)C1CSC(c2csc(CCN)n2)=N1` (stereo not given), the TGI in test [1], in test [2], in test [3], in [4], in test [5] and in [6] was greater than 100 µM throughout. The TGI in test [7], in [8], in test [9] and in test [10] was greater than 100 µM each time.

In the case of `N#CC(C#N)=CNCCN1CCN(C=C(C#N)C#N)CC1`, the TGI in [1], in [2], in test [3], in test [4], in test [5] and in test [6] was greater than 100 µM in each case. The TGI in test [7], in [8], in [9] and in [10] was greater than 100 µM in each case.

For `O=C(CN1CCN(Cc2ccccc2Cl)CC1)NC1CC(=O)c2c(Br)sc(Br)c21` (stereo not given), the GI50 in [1] was 17.2 µM; in [2], 41.9 µM; in test [3] it was 19.7 µM; in [4], 54.1 µM; in [5], 20.8 µM; in test [6], 17.4 µM. Moreover, the GI50 is 23.3 µM in test [7], 20.3 µM in test [8], 23.9 µM in test [9] and 51.4 µM in test [10]. Also, the TGI in [1] was 31.7 µM; in [2], greater than 100 µM; in [3], 35.3 µM; in test [4], greater than 100 µM; in test [5], 43.4 µM; in [6], 31.8 µM. Moreover, the TGI was 57.4 µM in [7], 38.7 µM in [8], 91.8 µM in test [9] and greater than 100 µM in test [10].

As for `CCn1c(-c2nonc2N)nc2c(C#CC(C)(C)O)ncc(OC3CCNCC3)c21`, the GI50 in [1] was 21.6 µM; in [2], greater than 25 µM; in [3], 3.74 µM; in test [4], 3.86 µM; in [5], 5.38 µM; in test [6], greater than 25 µM. The GI50 is 8.38 µM in [7], greater than 20.1 µM in test [8], 23.3 µM in test [9] and greater than 25 µM in test [10]. In addition, the TGI is greater than 25 µM in test [1]; greater than 25 µM in test [2]; greater than 25 µM in test [3]; greater than 25 µM in test [4]; 17.3 µM in test [5]; greater than 25 µM in test [6]. Further, the TGI in test [7] is 19 µM; in test [8], greater than 25 µM; in test [9] it was greater than 25 µM; in [10], greater than 25 µM.

For `CN1CCN(Cc2ccc(NC(=O)c3cncc(C#Cc4c(N)ncc5ccc(C#N)cc45)c3)cc2C(F)(F)F)CC1`, the GI50 in test [1] is 0.0668 µM; in test [2] it was 0.867 µM; in test [3], 0.864 µM; in test [4], 8.27 µM; in [5], 3.61 µM; in [6] it was 0.971 µM. In addition, the GI50 in [7] was 1.4 µM; in [8] it was 0.785 µM; in test [9] it was 0.294 µM; in test [10], 0.813 µM. For the same compound, the TGI in test [1] was 0.729 µM; in [2], 1.68 µM; in test [3], 1.67 µM; in test [4], 17.5 µM; in test [5], 14.3 µM; in test [6] it was 1.73 µM. For the same compound, the TGI in [7] stood at 50 µM; in test [8] it was 1.54 µM; in [9], 14.5 µM; in [10] it was 1.61 µM.

Take `COc1cc2c3c(n(CCCN4CCNCC4)c(=O)c2cc1OC)-c1cc2c(cc1C3=O)OCO2`: the GI50 was 1.09 µM in [1]; 0.0393 µM in [2]; 0.0892 µM in test [3]; 3.35 µM in [4]; 1.22 µM in test [5]; 1.19 µM in [6]. Further, the GI50 in test [7] was 0.00886 µM; in [8] it was 1.33 µM; in [9], 0.127 µM; in [10], 1.75 µM. The TGI turned out to be 7.31 µM in test [1]; 0.922 µM in test [2]; 2.92 µM in test [3]; 24.8 µM in [4]; 4.35 µM in test [5]; 10.6 µM in [6]. Besides, the TGI in test [7] amounted to 0.746 µM; in test [8], 10.5 µM; in test [9], 3.71 µM; in [10] it was 6.77 µM.

As to `O=C(O)CCCCn1ccc(=O)[nH]c1=O`, the TGI in [1], in test [2], in test [3], in [4], in test [5] and in test [6] was greater than 100 µM throughout. Also, the TGI in test [7], in test [8], in [9] and in [10] was greater than 100 µM throughout.

Consider `C/C(CCC(=O)O)=N/Nc1ccc([N+](=O)[O-])cc1`, for which the GI50 in test [1] was 1.53 µM; in test [2] it was 4.41 µM; in test [3], greater than 100 µM; in test [4], greater than 100 µM; in test [5], 17.4 µM; in test [6] it was 3.27 µM. The GI50 in test [7] is 1.51 µM; in test [8] it was 10.1 µM; in [9], greater than 100 µM; in test [10] it was greater than 100 µM. Moreover, the TGI in test [1], in test [2], in [3], in test [4], in test [5] and in test [6] was greater than 100 µM each time. For the same compound, the TGI in [7], in [8], in test [9] and in test [10] was greater than 100 µM throughout.

With `Cc1ccc([P+](Cc2ccccc2)(c2ccccc2)c2ccccc2)cc1`, the GI50 in test [1] is 2.78 µM; in test [2], 3.08 µM; in test [3], 2.14 µM; in test [4], 4.1 µM; in test [5], 1.52 µM; in test [6] it was 10.3 µM. The GI50 in test [7] is 1.14 µM; in test [8] it was 0.904 µM; in test [9], 2.57 µM; in test [10], 3.42 µM. Besides, the TGI was 16.4 µM in test [1]; 64.8 µM in [2]; 24.4 µM in test [3]; greater than 100 µM in test [4]; 65.8 µM in test [5]; 67.7 µM in [6]. Moreover, the TGI in test [7] is 3.69 µM; in test [8], 2.3 µM; in test [9], greater than 100 µM; in [10], greater than 100 µM.

As for `COc1cc2c(cc1OC)C(C#N)N(C(=O)c1ccccc1)C=C2OC(=O)c1ccccc1` (stereo not given), the TGI is greater than 100 µM in test [1]; 74.7 µM in [3]; greater than 100 µM in test [4]; 47.4 µM in test [5]; 39.3 µM in test [6]; greater than 100 µM in test [7]. In addition, the figures for the TGI in test [8], in test [9] and in test [10] were 44.9 µM, 51.4 µM and greater than 100 µM, respectively.

Take `COC(=O)C12CCC(C)(C)CC1C1=CCC3C4(C)CC(O)C(O)C(C)(C(=O)OC)C4CCC3(C)C1(CO)CC2` (stereo not given): the TGI is 19.5 µM in [1]; 29 µM in [2]; 39.8 µM in test [3]; 31.3 µM in [4]; 31.5 µM in test [5]; greater than 100 µM in [7]. In addition, the TGI in [8] is 41.3 µM; in test [9], 38.5 µM; in [10] it was 31.8 µM.

Consider `O=C(COc1ccccc1Cl)N1N=C(c2ccccc2)CC1(O)c1ccccc1` (stereo not given), for which the TGI in test [1] was found to be 31.9 µM; in test [2], 44.4 µM; in [3], 23.9 µM; in test [4], 47.7 µM; in [5] it was 33.6 µM; in [6], 35.9 µM. For the same compound, the TGI in test [7] was 30.6 µM; in test [9], 35.9 µM; in test [10] it was 33.5 µM.

With `Cc1ccc(C)c2c1C(=O)N(c1ccc(F)cc1F)C2=O`, the GI50 is greater than 100 µM in test [1]; greater than 100 µM in test [2]; 89.3 µM in [3]; greater than 100 µM in test [4]; greater than 100 µM in [5]; greater than 100 µM in [6]. Moreover, the GI50 in test [7], in test [9] and in test [10] was greater than 100 µM in each case. The TGI in [1], in test [2], in test [3], in [4], in [5] and in [6] was greater than 100 µM each time. For the same compound, the TGI in test [7], in [9] and in [10] was greater than 100 µM each time.
